Data taken from patent US20220089592A1, “IMIDAZO[1,2-A]PYRIDINYL DERIVATIVES AS IRAK4 INHIBITORS” (priority 2019, published 2022).

Legend:
[1] = target: T1, IRAK4 (Homo sapiens, UniProt Q9NWZ3); assay: 2-hour 1 mM ATP IRAK4 Biochemical assay (as above, but with 100 pM IRAK4 and 1 mM ATP); settings: IRAK4 MSD BIOCHEMICAL (1 mM ATP) IC50 (μM), 100 pM IRAK4, 2 hours
T1 sequence (Q9NWZ3 1-460): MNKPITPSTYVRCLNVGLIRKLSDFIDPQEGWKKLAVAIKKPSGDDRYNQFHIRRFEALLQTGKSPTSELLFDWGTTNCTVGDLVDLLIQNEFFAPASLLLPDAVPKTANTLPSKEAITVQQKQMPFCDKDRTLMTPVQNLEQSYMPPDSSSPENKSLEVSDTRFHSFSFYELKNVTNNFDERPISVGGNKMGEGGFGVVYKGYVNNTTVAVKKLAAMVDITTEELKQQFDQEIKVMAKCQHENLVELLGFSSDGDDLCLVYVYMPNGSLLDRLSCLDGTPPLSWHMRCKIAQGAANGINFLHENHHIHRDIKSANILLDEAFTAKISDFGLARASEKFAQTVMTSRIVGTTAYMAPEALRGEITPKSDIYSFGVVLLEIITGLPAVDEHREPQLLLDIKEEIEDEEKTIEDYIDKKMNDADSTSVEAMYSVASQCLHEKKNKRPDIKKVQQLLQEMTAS
Outline: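 MSD electrochemiluminescence read-out: biotinylated peptide product bound to streptavidin plates, probed with anti-P-Thr rabbit antibody and Sulfo-Tag goat anti-rabbit. Kinase reaction used 1 mM ATP and 100 pM IRAK4 over 2 hours before EDTA quench.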

[2] = target: T1, IRAK4; assay: 2-hour 10 μM ATP Biochemical Assay (MesoScale Detection format; IRAK4 phosphorylation of biotin labeled IRAK1 activation loop peptide)
Outline: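 Electrochemiluminescent MSD readout: after streptavidin capture, phosphothreonine on the biotin-labelled IRAK1 activation-loop peptide detected by rabbit antibody and Sulfo-Tag secondary. Phosphorylation ran 2 h with 10 μM ATP before EDTA quench.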

[3] = IRAK4 MSD BIOCHEMICAL (10 μM ATP) IC50 (μM), 1 nM IRAK4, 2 hours

SMILES	IC50 [1] [µM]	IC50 [2, 3] [µM]	IC50 ([2]; read-out: IRAK4 MSD BIOCHEMICAL (10 μM ATP) IC50, 1 nM IRAK4, 2 hours) [µM]
CCOc1cc2nc(COC)cn2cc1NC(=O)c1cccc(C(F)(F)F)n1 [Example 56, N-(7-ethoxy-2-(methoxymethyl)imidazo[1,2-a]pyridin-6-yl)-6-(trifluoromethyl)picolinamide]	0.014	0.005	
CCOc1cc2nc(CC3CCOC3)cn2cc1NC(=O)c1cccc(OC)n1 (centres unmarked) [Example 134, N-(7-ethoxy-2-((tetrahydrofuran-3-yl)methyl)imidazo[1,2-a]pyridin-6-yl)-6-methoxypicolinamide]	0.009	0.002	
CC(C)Oc1c(NC(=O)c2cnn3cccnc23)cn2cc(C34COC(C)(C3)C4)nc2c1F [Example 577, N-(8-fluoro-7-isopropoxy-2-(1-methyl-2-oxabicyclo[2.1.1]hexan-4-yl)imidazo[1,2-a]pyridin-6-yl)pyrazolo[1,5-a]pyrimidine-3-carboxamide]	0.001	0.003	
COCCCc1cn2cc(NC(=O)c3cccc(C(F)F)n3)ccc2n1 [Example 234, 6-(difluoromethyl)-N-(2-(3-methoxypropyl)imidazo[1,2-a]pyridin-6-yl)picolinamide]	0.049	0.011	
CCOc1cc2nc(C(C)(C)CO)cn2cc1NC(=O)c1cccc(C(F)F)n1 [Example 17, 6-(difluoromethyl)-N-(7-ethoxy-2-(1-hydroxy-2-methylpropan-2-yl)imidazo[1,2-a]pyridin-6-yl)picolinamide]	0.016	0.005	
CCOc1cc2nc(C3CCOCC3)cn2cc1NC(=O)c1csc(C)n1 [Example 223, N-(7-ethoxy-2-(tetrahydro-2H-pyran-4-yl)imidazo[1,2-a]pyridin-6-yl)-2-methylthiazole-4-carboxamide]	0.01	0.004	
CCOc1cc2nc(C3CC3)cn2cc1NC(=O)c1cccc2c1OCC2 [Example 119, N-(2-cyclopropyl-7-ethoxyimidazo[1,2-a]pyridin-6-yl)-2,3-dihydrobenzofuran-7-carboxamide]	0.021	0.009	
CCOc1cc2nc(CCCOC)cn2cc1NC(=O)c1ccn(C(F)F)n1 [Example 88, 1-(difluoromethyl)-N-(7-ethoxy-2-(3-methoxypropyl)imidazo[1,2-a]pyridin-6-yl)-1H-pyrazole-3-carboxamide]	0.004	0.003	
CCOc1nc2nc(CC3CCOC3)cn2cc1NC(=O)c1cccc(C(F)(F)F)n1 (single isomer, unassigned) [Example 94]	0.004		0.001
CCOc1cc2nc(C3CCN(C)C3=O)cn2cc1NC(=O)c1cccc(C(F)F)n1 (centres unmarked) [Example 156, 6-(difluoromethyl)-N-(7-ethoxy-2-(1-methyl-2-oxopyrrolidin-3-yl)imidazo[1,2-a]pyridin-6-yl)picolinamide]	0.003	0.001	
CCOc1cc2nc(C3CCOCC3)cn2cc1NC(=O)c1cccc(OC(F)F)n1 [Example 362, 6-(difluoromethoxy)-N-(7-ethoxy-2-(tetrahydro-2H-pyran-4-yl)imidazo[1,2-a]pyridin-6-yl)picolinamide]	0.017	0.006	
CCOc1cc2nc([C@@H]3C[C@H]3F)cn2cc1NC(=O)c1cccc(C(F)F)n1 (stereo in doubt) [Example 254, 6-(difluoromethyl)-N-(7-ethoxy-2-((1S*, 2R*)-2-fluorocyclopropyl)imidazo[1,2-a]pyridin-6-yl)picolinamide]	0.005	0.002	
CCOc1cc2nc(C(O)C3CC3)cn2cc1NC(=O)c1cccc(C(F)(F)F)n1 (centres unmarked) [Example 168, N-(2-(cyclopropyl(hydroxy)methyl)-7-ethoxyimidazo[1,2-a]pyridin-6-yl)-6-(trifluoromethyl)picolinamide]	0.015	0.007	
COc1cc(NC(=O)c2cccc(C(F)F)n2)cn2cc(C3CC4(CCOC4)C3)nc12 (centres unmarked) [Example 507, 6-(difluoromethyl)-N-(8-methoxy-2-(6-oxaspiro[3.4]octan-2-yl)imidazo[1,2-a]pyridin-6-yl)picolinamide]	0.004	0.002	
CCOc1cc2nc([C@@H](C)[C@@H]3CCOC3)cn2cc1NC(=O)c1cccc(C(F)(F)F)n1 (single isomer, unassigned) [Example 140]	0.001	0.001	
CCOc1cc2nc(C3CCOCC3)cn2cc1NC(=O)c1cnc2c(c1)CCO2 [Example 240, N-(7-ethoxy-2-(tetrahydro-2H-pyran-4-yl)imidazo[1,2-a]pyridin-6-yl)-2,3-dihydrofuro[2,3-b]pyridine-5-carboxamide]	0.019	0.006	
